15 molecules from patent US10005736B1, “Pyridine and pyrimidine derivatives” (Hoffmann-La Roche Inc., priority 2015, dated 2018) can be followed below.

One data set addresses T1, human EAAT3 (Homo sapiens, UniProt P43005).
T1 construct: expressed in transfected cells; host or cells: HEK-293
T1 sequence (P43005 1-524): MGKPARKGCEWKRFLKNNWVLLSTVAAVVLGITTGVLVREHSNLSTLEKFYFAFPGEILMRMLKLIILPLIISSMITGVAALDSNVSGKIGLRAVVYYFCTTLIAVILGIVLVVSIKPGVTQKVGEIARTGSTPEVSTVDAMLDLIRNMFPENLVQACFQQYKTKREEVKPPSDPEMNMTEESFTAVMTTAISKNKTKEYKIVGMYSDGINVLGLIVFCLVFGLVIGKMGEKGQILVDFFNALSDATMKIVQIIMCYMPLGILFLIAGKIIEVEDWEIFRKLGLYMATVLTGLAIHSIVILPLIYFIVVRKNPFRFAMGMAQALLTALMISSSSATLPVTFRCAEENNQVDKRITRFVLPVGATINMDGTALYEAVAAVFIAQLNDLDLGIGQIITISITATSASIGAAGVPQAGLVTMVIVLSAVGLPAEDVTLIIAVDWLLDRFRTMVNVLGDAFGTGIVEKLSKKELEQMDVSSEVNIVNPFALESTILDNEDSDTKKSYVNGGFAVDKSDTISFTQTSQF
Briefly: FLIPR Membrane Potential (FMP) assay, antagonist potency at human EAAT3. It is filed as cell-based. The following applies: HEK-293 cells stably expressing human EAAT3; L-glutamate as agonist at EC80; antagonists applied 15 min before; Kb by Cheng-Prusoff from IC50. Here is the method:
The FLIPR Membrane Potential (FMP) Assay
HEK-293 cells stably expressing human EAAT3 were seeded at 55 000 cells/well in growth medium (DMEM glutamate free (Invitrogen 11960-044), 1% Pen Strep (10 ml/1 GIBCO BRL N^o 15140-023), 10% FCS non dialysed heat inactivated, 5 mg/l puromycin) in poly-D-lysine treated 96-well black microtiter plates with clear-bottom. After 24 h, the growth medium was removed and […] of Krebs buffer (140 mM NaCl, 4.7 mM KCl, 2.5 mM CaCl2, 1.2 mM MgCl2, 11 mM HEPES, 10 mM D-glucose, pH=7.4) added. The cells were then loaded by adding 100 μl/well FMP assay dye (FLIPR Membrane Potential assay reagent, Molecular Devices). The 96-well plates were then incubated at 37° C. for 1 h. The depolarization of the cells will cause more dye to enter in the cells, where it will bind to intracellular proteins and lipids and cause an increase in the fluorescence signal. Antagonist potency at human EAAT3 was determined by using L-glutamate as agonist at a concentration which gives 80% of the maximum response. The antagonists were applied 15 min before the application of the agonist L-glutamate. The assays were performed at room temperature and measurements done by using a Fluorometric Imaging Plate Reader (FLIPR, Molecular Devices) and filter #2. Responses were measured as peak increase in fluorescence minus basal (i.e. fluorescence without addition of L-glutamate). Kb was determined using the Cheng-Prusoff equation Kb=IC50/[1+(A/EC50)], where IC50 is the concentration of the antagonist producing 50% inhibition, A is the concentration of the agonist against which the IC50 is being determined (at EC80) and EC50 is the concentration of the agonist producing 50% […].

SMILES strings stand for the structures.

On human EAAT3, `CC(C)c1ncncc1-c1cc(C(=O)NC2(C)CCS(=O)(=O)C2)cc(-c2ccc(Cl)cc2)c1` (racemic) [Example 12, (RS)-3-(4-Chlorophenyl)-N-(3-methyl-1,1-dioxothiolan-3-yl)-5-(4-propan-2-ylpyrimidin-5-yl)-benzamide] returned a Kb of 0.31 µM.
On human EAAT3, `Cc1ncccc1-c1cc(C(=O)NC2(C)CCS(=O)(=O)C2)cc(-c2ccc(Cl)cc2)c1` (racemic) [Example 13, (RS)-3-(4-Chlorophenyl)-N-(3-methyl-1,1-dioxothiolan-3-yl)-5-(2-methyl-pyridin-3-yl)-benzamide] yielded a Kb of 0.51 µM. This Kb lies about 1.6-fold higher than the previous one.
Regarding `CCC(C)(C)NC(=O)c1cc(-c2ccc(C)cc2)cc(-c2cccnc2)c1` [Example 1, N-(2-Methylbutan-2-yl)-3-(4-methylphenyl)-5-pyridin-3-ylbenzamide], the Kb on human EAAT3 is 0.325 µM.
Same read-out and setting: as for `CCC(C)(C)NC(=O)c1cc(-c2ccc(C)cc2)cc(-c2cncnc2)c1` [Example 2, N-(2-Methylbutan-2-yl)-3-(4-methylphenyl)-5-pyrimidin-5-ylbenzamide], the figure is 0.22 µM; as for `CCC(C)(C)NC(=O)c1cc(-c2ccc(C)cc2)cc(-c2cncnc2C(C)C)c1` [Example 3, N-(2-Methylbutan-2-yl)-3-(4-methylphenyl)-5-(4-propan-2-ylpyrimidin-5-yl)-benzamide], 0.23 µM.
For `CCC(C)(C)NC(=O)c1cc(-c2ccc(C)cc2)cc(-c2cnccc2C)c1` [Example 4, N-(2-Methylbutan-2-yl)-3-(4-methylphenyl)-5-(4-methylpyridin-3-yl)-benzamide], the antagonist equilibrium constant (Kb) on human EAAT3 was 0.29 µM.
`CCC(C)(C)NC(=O)c1cc(-c2ccc(C)cc2)cc(-c2cccnc2C)c1` [Example 5, N-(2-Methylbutan-2-yl)-3-(4-methylphenyl)-5-(2-methylpyridin-3-yl)-benzamide] came in with a Kb on human EAAT3 of 0.25 µM.
For `CCC(C)(C)NC(=O)c1cc(-c2ccc(C)cc2)cc(-c2cnccc2C(C)C)c1` [Example 6, N-(2-Methylbutan-2-yl)-3-(4-methylphenyl)-5-(4-propan-2-ylpyridin-3-yl)-benzamide], the Kb on human EAAT3 is 0.38 µM.
Take `Cc1ccncc1-c1cc(C(=O)NC(C)(C)C)cc(-c2ccc(Cl)cc2)c1` [Example 7, N-tert-Butyl-3-(4-chlorophenyl)-5-(4-methylpyridin-3-yl)-benzamide]: the antagonist dissociation constant (Kb) on human EAAT3 was 0.31 µM. The Kb values of the last two molecules are within 1.5-fold of each other.
With `CCC(C)(C)NC(=O)c1cc(-c2ccc(C)cc2)cc(-c2cccnc2C(C)C)c1` [Example 14, N-(2-Methylbutan-2-yl)-3-(4-methylphenyl)-5-(2-propan-2-ylpyridin-3-yl)-benzamide], the Kb at human EAAT3 is 0.57 µM.
The molecule `CC(C)c1ncccc1-c1cc(C(=O)NC(C)(C)C)cc(-c2ccc(Cl)cc2)c1` [Example 15, N-tert-Butyl-3-(4-chlorophenyl)-5-(2-propan-2-ylpyridin-3-yl)-benzamide] registered a Kb at human EAAT3 of 0.63 µM.
With `CC(C)c1ncncc1-c1cc(C(=O)NC(C)(C)C2CC2)cc(-c2ccc(Cl)cc2)c1` [Example 16, 3-(4-Chlorophenyl)-N-(2-cyclopropylpropan-2-yl)-5-(4-propan-2-ylpyrimidin-5-yl)-benzamide], the Kb at human EAAT3 is 0.42 µM.
At human EAAT3, `Cc1ncccc1-c1cc(C(=O)NC(C)(C)C2CC2)cc(-c2ccc(Cl)cc2)c1` [Example 17, 3-(4-Chlorophenyl)-N-(2-cyclopropylpropan-2-yl)-5-(2-methylpyridin-3-yl)-benzamide] displayed an antagonist dissociation constant (Kb) of 0.64 µM.
For `Cc1ncccc1-c1cc(C(=O)NC(C)(C)C(F)(F)F)cc(-c2ccc(Cl)cc2)c1` [Example 19, 3-(4-Chlorophenyl)-5-(2-methylpyridin-3-yl)-N-(1,1,1-trifluoro-2-methylpropan-2-yl)-benzamide], the Kb at human EAAT3 came out at 0.34 µM.
For the molecule `Cc1ncncc1-c1cc(C(=O)NC(C)(C)C)cc(-c2ccc(Cl)cc2)c1` [Example 41, N-tert-Butyl-3-(4-chlorophenyl)-5-(4-methyl-pyrimidin-5-yl)-benzamide], the melting point was determined as 192 °C.

Usually Kb stands for the equilibrium dissociation constant of an antagonist, usually derived from a functional assay. Higher therefore signals a less potent antagonist. As usually defined, the melting point is the temperature, or range, at which the solid turns liquid.
